Source: patent US20170334899A1, “AMINO-SUBSTITUTED ISOTHIAZOLES” (Bayer Pharma Aktiengesellschaft, priority 2014, published 2017)

Molecular target: T1, human kinase Mps-1 (Homo sapiens, UniProt P33981)
T1 construct: N-terminally GST-tagged human full length recombinant Mps-1 kinase; GST (N); purchased Invitrogen, Karslruhe, Germany PV4071
T1 sequence (P33981 1-857): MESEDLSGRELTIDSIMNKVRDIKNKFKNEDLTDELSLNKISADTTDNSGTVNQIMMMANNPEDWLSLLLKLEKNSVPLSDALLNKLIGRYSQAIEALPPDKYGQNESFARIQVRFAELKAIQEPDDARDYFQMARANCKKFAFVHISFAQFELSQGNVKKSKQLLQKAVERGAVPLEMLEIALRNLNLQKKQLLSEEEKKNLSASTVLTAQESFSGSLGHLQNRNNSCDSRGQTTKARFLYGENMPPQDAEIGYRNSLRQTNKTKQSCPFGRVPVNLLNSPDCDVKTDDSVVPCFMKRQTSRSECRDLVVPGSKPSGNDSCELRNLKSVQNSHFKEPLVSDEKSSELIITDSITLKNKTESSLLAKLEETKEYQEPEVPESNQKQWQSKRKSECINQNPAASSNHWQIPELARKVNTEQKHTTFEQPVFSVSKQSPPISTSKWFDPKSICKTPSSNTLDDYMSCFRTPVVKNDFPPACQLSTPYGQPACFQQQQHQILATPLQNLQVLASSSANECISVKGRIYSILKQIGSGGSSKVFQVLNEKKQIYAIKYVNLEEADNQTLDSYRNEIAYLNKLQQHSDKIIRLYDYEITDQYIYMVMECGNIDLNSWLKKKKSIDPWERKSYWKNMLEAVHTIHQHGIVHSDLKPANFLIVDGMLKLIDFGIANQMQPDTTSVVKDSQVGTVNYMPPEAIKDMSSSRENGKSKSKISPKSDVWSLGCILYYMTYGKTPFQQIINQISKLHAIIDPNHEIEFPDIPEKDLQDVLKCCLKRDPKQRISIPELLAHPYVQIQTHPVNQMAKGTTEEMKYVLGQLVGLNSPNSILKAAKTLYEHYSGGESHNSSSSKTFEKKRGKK
Assay: Mps-1 kinase assay (TR-FRET)
Type: biochemical
Conditions: Mps-1 TR-FRET kinase assay; avg; read-out: Mps1 avg (IC50 [mol/l])
Outline: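 GST-tagged full-length recombinant human Mps-1 (~0.5 nM) pre-incubated 15 min with compound, then reacted 60 min at 22 °C with 10 μM ATP and 1 μM biotinylated peptide in Hepes pH 7.7 buffer. EDTA-stopped; TR-FRET (Eu anti-phospho-Ser/Thr to SA-XLent) 665/620 nm ratio normalised to no-inhibitor and no-enzyme controls.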

SMILES	IC50
Cc1nsc(Nc2cnc3ccccc3n2)c1C(=O)Nc1ccc(NC(=O)C(C)(C)C)cc1 [Example 185, N-{4-[(2,2-dimethylpropanoyl)amino]phenyl}-3-methyl-5-(quinoxalin-2-ylamino)-1,2-thiazole-4-carboxamide]	> 20 µM
Cc1cc(C)n(-c2ccccc2NC(=O)c2c(C)nsc2Nc2cnc3ccccc3n2)n1 [Example 243, N-[2-(3,5-dimethyl-1H-pyrazol-1-yl)phenyl]-3-methyl-5-(quinoxalin-2-ylamino)-1,2-thiazole-4-carboxamide]	> 20 µM
Cc1nsc(Nc2ccc(C#N)cn2)c1C(=O)Nc1ccc(S(C)(=O)=O)cc1 [Example 246, 5-[(5-cyanopyridin-2-yl)amino]-3-methyl-N-[4-(methylsulfonyl)phenyl]-1,2-thiazole-4-carboxamide]	> 20 µM
Cc1nsc(Nc2cc(C#N)ccn2)c1C(=O)Nc1ccc(C(=O)OC(C)(C)C)cc1 [Example 182, tert-butyl 4-[({5-[(4-cyanopyridin-2-yl)amino]-3-methyl-1,2-thiazol-4-yl}carbonyl)amino]benzoate]	> 20 µM
CNC(=O)c1ccc(NC(=O)c2c(C)nsc2Nc2cnc3ccccc3n2)cc1F [Example 207, N-[3-fluoro-4-(methylcarbamoyl)phenyl]-3-methyl-5-(quinoxalin-2-ylamino)-1,2-thiazole-4-carboxamide]	> 20 µM
CNC(=O)c1ccc(NC(=O)c2c(C)nsc2Nc2ccc(C#N)cn2)cc1F [Example 208, 5-[(5-cyanopyridin-2-yl)amino]-N-[3-fluoro-4-(methylcarbamoyl)phenyl]-3-methyl-1,2-thiazole-4-carboxamide]	> 20 µM
COC(=O)c1cc(NC(=O)c2c(C)nsc2Nc2cnc3ccccc3n2)cc(C(=O)OC)c1 [Example 237, dimethyl 5-({[3-methyl-5-(quinoxalin-2-ylamino)-1,2-thiazol-4-yl]carbonyl}amino)isophthalate]	> 20 µM
Cc1nsc(Nc2cc(C#N)ccn2)c1C(=O)Nc1cccc(NC(=O)C(C)(C)C)c1 [Example 183, 5-[(4-cyanopyridin-2-yl)amino]-N-{3-[(2,2-dimethylpropanoyl)amino]phenyl}-3-methyl-1,2-thiazole-4-carboxamide]	> 20 µM
COC(=O)CCc1cccc(NC(=O)c2c(C)nsc2Nc2ccc(C#N)cn2)c1 [Example 176, methyl 3-{3-[({5-[(5-cyanopyridin-2-yl)amino]-3-methyl-1,2-thiazol-4-yl}carbonyl)amino]phenyl}propanoate]	> 20 µM
Cc1nsc(Nc2cnc3ccccc3n2)c1C(=O)Nc1ccc(NCCNC(=O)OC(C)(C)C)nc1 [Example 244, tert-butyl (2-{[5-({[3-methyl-5-(quinoxalin-2-ylamino)-1,2-thiazol-4-yl]carbonyl}amino)pyridin-2-yl]amino}ethyl)carbamate]	> 20 µM
Cc1nsc(Nc2cnc3ccccc3n2)c1C(=O)Nc1cccc(NC(=O)OC(C)(C)C)c1 [Example 178, tert-butyl [3-({[3-methyl-5-(quinoxalin-2-ylamino)-1,2-thiazol-4-yl]carbonyl}amino)-phenyl]carbamate]	> 20 µM
Cc1nsc(Nc2cnc3ccccc3n2)c1C(=O)Nc1ccc(C(=O)O)cc1 [Example 187, 4-({[3-methyl-5-(quinoxalin-2-ylamino)-1,2-thiazol-4-yl]carbonyl}amino)benzoic acid]	5.4 µM
Cc1nsc(Nc2cnc3ccccc3n2)c1C(=O)Nc1ccc(Oc2cccnc2)nc1 [Example 231, 3-methyl-N-[6-(pyridin-3-yloxy)pyridin-3-yl]-5-(quinoxalin-2-ylamino)-1,2-thiazole-4-carboxamide]	> 20 µM

Other lines, results leading:

IC50	SMILES
> 20 µM	Cc1nsc(Nc2cnc(C(F)(F)F)cn2)c1C(=O)Nc1ccc(OCCN)nc1 [Example 197, N-[6-(2-aminoethoxy)pyridin-3-yl]-3-methyl-5-{[5-(trifluoromethyl)pyrazin-2-yl]amino}-1,2-thiazole-4-carboxamide]
> 20 µM	Cc1nsc(Nc2cnc3ccccc3n2)c1C(=O)Nc1ccc(NC2CCN(C(=O)OC(C)(C)C)CC2)nc1 [Example 234, tert-butyl 4-{[5-({[3-methyl-5-(quinoxalin-2-ylamino)-1,2-thiazol-4-yl]carbonyl}amino)pyridin-2-yl]amino}piperidine-1-carboxylate]
> 20 µM	CNS(=O)(=O)c1ccc(NC(=O)c2c(C)nsc2Nc2cnc(C(F)(F)F)cn2)cc1 [Example 212, 3-methyl-N-[4-(methylsulfamoyl)phenyl]-5-{[5-(trifluoromethyl)pyrazin-2-yl]amino}-1,2-thiazole-4-carboxamide]
> 20 µM	Cc1nsc(Nc2ccc(C#N)cn2)c1C(=O)Nc1ccc(OCCC(=O)OC(C)(C)C)nc1 [Example 199, tert-butyl 3-({5-[({5-[(5-cyanopyridin-2-yl)amino]-3-methyl-1,2-thiazol-4-yl}carbonyl)amino]pyridin-2-yl}oxy)propanoate]
≥ 20 µM	Cc1nsc(Nc2cncc(C(F)(F)F)n2)c1C(=O)Nc1ccc(OC2CCN(CCF)CC2)nc1 [Example 14, N-(6-{[1-(2-Fluoroethyl)piperidin-4-yl]oxy}pyridin-3-yl)-3-methyl-5-{[6-(trifluoro-methyl)pyrazin-2-yl]amino}-1,2-thiazole-4-carboxamide]
> 20 µM	Cc1nsc(Nc2cnc(C(F)(F)F)cn2)c1C(=O)Nc1ccc(OCC2CCCN(C(=O)OC(C)(C)C)C2)nc1 (stereo not drawn) [Example 228, tert-butyl 3-{[(5-{[(3-methyl-5-{[5-(trifluoromethyl)pyrazin-2-yl]amino}-1,2-thiazol-4-yl)carbonyl]amino}pyridin-2-yl)oxy]methyl}piperidine-1-carboxylate]
> 20 µM	Cc1nsc(Nc2cncc(C(F)(F)F)n2)c1C(=O)Nc1ccc(OCC2CCN(C(=O)OC(C)(C)C)CC2)nc1 [Example 226, tert-butyl 4-{[(5-{[(3-methyl-5-{[6-(trifluoromethyl)pyrazin-2-yl]amino}-1,2-thiazol-4-yl)carbonyl]amino}pyridin-2-yl)oxy]methyl}piperidine-1-carboxylate]
> 20 µM	Cc1nsc(Nc2cnc(C(F)(F)F)cn2)c1C(=O)Nc1ccc(F)c(OC2CCN(C(=O)OC(C)(C)C)CC2)c1 [Example 229, tert-butyl 4-(2-fluoro-5-{[(3-methyl-5-{[5-(trifluoromethyl)pyrazin-2-yl]amino}-1,2-thiazol-4-yl)carbonyl]amino}phenoxy)piperidine-1-carboxylate]
> 20 µM	Cc1nsc(Nc2cnc(C(F)(F)F)cn2)c1C(=O)Nc1ccc(OC2CCN(C(=O)OC(C)(C)C)CC2)c(F)c1 [Example 217, tert-butyl 4-(2-fluoro-4-{[(3-methyl-5-{[5-(trifluoromethyl)pyrazin-2-yl]amino}-1,2-thiazol-4-yl)carbonyl]amino}phenoxy)piperidine-1-carboxylate]
> 20 µM	Cc1nsc(Nc2cncc(C(F)(F)F)n2)c1C(=O)Nc1ccc(OCCCN)nc1 [Example 209, N-[6-(3-aminopropoxy)pyridin-3-yl]-3-methyl-5-{[6-(trifluoromethyl)pyrazin-2-yl]amino}-1,2-thiazole-4-carboxamide]
> 20 µM	Cc1nsc(Nc2cncc(C(F)(F)F)n2)c1C(=O)Nc1ccc(C(=O)NC2CCN(C(=O)OC(C)(C)C)CC2)cc1 [Example 222, tert-butyl 4-[(4-{[(3-methyl-5-{[6-(trifluoromethyl)pyrazin-2-yl]amino}-1,2-thiazol-4-yl)carbonyl]amino}benzoyl)amino] piperidine-1-carboxylate]
> 20 µM	Cc1nsc(Nc2cnc(C(F)(F)F)cn2)c1C(=O)Nc1ccc(OC2CCN(C)CC2)nc1 [Example 220, 3-methyl-N-{6-[(1-methylpiperidin-4-yl)oxy]pyridin-3-yl}-5-{[5-(trifluoromethyl)pyrazin-2-yl]amino}-1,2-thiazole-4-carboxamide]
> 20 µM	Cc1nsc(Nc2cncc(C(F)(F)F)n2)c1C(=O)Nc1ccc(OC2CCCN(C(=O)OC(C)(C)C)C2)nc1 (stereo not drawn) [Example 189, tert-butyl 3-[(5-{[(3-methyl-5-{[6-(trifluoromethyl)pyrazin-2-yl]amino}-1,2-thiazol-4-yl)carbonyl]amino}pyridin-2-yl)oxy]piperidine-1-carboxylate]
> 20 µM	Cc1nsc(Nc2cnc(C(F)(F)F)cn2)c1C(=O)Nc1cccc(S(C)(=O)=O)c1 [Example 195, 3-methyl-N-[3-(methylsulfonyl)phenyl]-5-{[5-(trifluoromethyl)pyrazin-2-yl]amino}-1,2-thiazole-4-carboxamide]
